Measured values reported in patent publication US12310944B2 (priority 2019, dated 2025).
Where two headings read alike, the source gives them in different places.

Assays:
[1] = system: PC-12 neural cell line; assay: Toxicity test in PC-12 nerve cell (MTT); format: cell-based; conditions: PC-12 cells; for SR(%) cell survival rate, 20 μM: 20 μM compound for 24 h; for SR(%) cell survival rate, 50 μM: 50 μM compound for 24 h
Method: Toxicity Test in PC-12 Nerve Cell:
Drugs and reagents: Test compounds, DMEM medium (01-050-1A) purchased from Biological Industries, FBS fetal bovine serum (04-001-1A) purchased from Biological Industries, MTT thiazolyl blue reagent (KGT525500) purchased from KeyGEN BioTECH.
(§1) Instrument: THERMO Varioskan Flash full-wavelength multifunctional microplate reader.
About 3×10^3 PC-12 cells were evenly mixed in 0.1 mL of DMEM medium containing 10% FBS, and plated on a 96-well bottom plate, and incubated overnight at 37° C. in an environment containing 5% CO2. The 20 μM and 50 μM compounds diluted in 0.1 mL of DMEM medium were treated on the cells for 24 hours. Then MTT reagent was added to the well plate, and the plate was incubated at 37° C. for 2 to 4 hours. The color reaction was measured at 492 nm using a spectrophotometer (Thermo, multiskan FC).

[2] = molecular target: hBuChE (Homo sapiens, UniProt P06276); assay: Cholinesterase inhibitory activity (DTNB/BTC), hBuChE; format: biochemical; conditions: mean ± SEM
[3] = molecular target: T1, eqBuChE (BuChE, E.C.3.1.1.8, selected from horse serum) (Equus caballus, UniProt P81908); assay: Cholinesterase inhibitory activity (DTNB/BTC), eqBuChE; format: biochemical
T1 construct: BuChE (E.C.3.1.1.8, selected from horse serum); purchased Sigma; host or cells: horse serum
T1 sequence (P81908 whole entry): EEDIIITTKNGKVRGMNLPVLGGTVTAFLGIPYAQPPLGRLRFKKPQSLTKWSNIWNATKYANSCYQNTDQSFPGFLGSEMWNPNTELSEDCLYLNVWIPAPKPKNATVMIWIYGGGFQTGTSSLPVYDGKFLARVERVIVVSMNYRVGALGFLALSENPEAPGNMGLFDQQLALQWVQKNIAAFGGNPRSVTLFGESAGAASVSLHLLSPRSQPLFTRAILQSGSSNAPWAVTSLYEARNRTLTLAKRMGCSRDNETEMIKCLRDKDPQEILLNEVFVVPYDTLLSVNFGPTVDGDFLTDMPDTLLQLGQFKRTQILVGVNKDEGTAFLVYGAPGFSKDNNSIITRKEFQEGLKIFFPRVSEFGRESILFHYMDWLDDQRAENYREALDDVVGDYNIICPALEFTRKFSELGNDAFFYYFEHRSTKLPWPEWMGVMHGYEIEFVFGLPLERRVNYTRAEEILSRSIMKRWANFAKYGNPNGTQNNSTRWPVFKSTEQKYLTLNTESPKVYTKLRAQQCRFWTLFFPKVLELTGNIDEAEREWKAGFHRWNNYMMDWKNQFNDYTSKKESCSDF
Source text: Determination of Cholinesterase Inhibitory Activity:
Drugs and reagents: Test compounds, AChE (E.C.3.1.1.7, Type VI-S, selected from electric eel), BuChE (E.C.3.1.1.8, selected from horse serum), 5,5′-dithiobis(2-nitrobenzoic acid) (DTNB), acetylthiocholine (ATC) iodide and butyrylthiocholine (BTC) iodide were all purchased from Sigma; the positive control tacrine hydrochloride (9-amino-1,2,3,4-tetrahydroacridine hydrochloride hydrate) was purchased from BioTrend.
as §1
(1) Formulation of buffer: 13.6 g of potassium dihydrogen phosphate was dissolved in 1 L of water, and pH was adjusted with potassium hydroxide to reach pH=8±0.1. The solution was stored at 4° C. for later use.
(2) Formulation of 0.01 M DTNB solution: 0.396 g of DTNB and 0.15 g of sodium bicarbonate were dissolved in 100 mL of water to prepare a 0.01 M DTNB solution, which was stored at −30° C. for later use.
(3) Formulation of 0.075 M ATC and BTC solutions: 0.217 g of ATC was dissolved in 10 mL of water to prepare a 0.075 M ATC solution, which was stored at −30° C. for later use; 0.237 g of BTC was dissolved in 10 mL of water to prepare a 0.075 M BTC solution, which was stored at −30° C. for later use.
(4) Formulation of AChE and BuChE solutions: 5,000 units of AChE were dissolved in 1 mL of 1% gel solution, and then diluted to 100 mL with water to prepare a AChE solution with a concentration of 5 units/mL, which was stored at −30° C. for later use; 5,000 units of BuChE were dissolved in 1 mL of 1% gel solution, and then diluted to 100 mL with water to prepare a BuChE solution with a concentration of 5 units/mL, which was stored at −30° C. for later use.
(5) Formulation of test substance solution: The test compound was dissolved in ethanol to obtain a solution with a concentration of 10^−3 M (ethanol would not affect the test results), and then diluted with water to prepare solutions with concentrations of […], 10^−5, 10^−6, 10^−7, 10^−8, 10^−9, and 10^−10 M, respectively.
Before the start of the experiment, all the solutions as used were warmed to room temperature, and the AChE and BuChE solutions were diluted 1-fold with water to prepare an enzyme solution with a concentration of 2.5 units/mL. The background UV absorbance was measured with a blank buffer (3 mL) as a subtraction value. Firstly, 100 μL of test compound solution, 100 μL of DTNB solution, and 100 μL of enzyme solution were added to 3 mL of buffer. After adding 20 μL of ATC or BTC solution to trigger the reaction, the time was recorded immediately and the test solution was mixted quickly and uniformly at the same time. After 2 minutes, the UV absorbance was measured at a wavelength of […]. The blank control group was measured with an equal volume of water instead of the test substance solution. All tests were performed three times in parallel. The UV absorption value of the blank control group was taken as 100%, the absorbance (OD value) of the test compound at each concentration was recorded, and GraphPad Prism™ (GraphPad Software, San Diego, CA, USA) software was used to analyze the results in a non-linear regression analysis model to calculate the corresponding IC50 values, as shown in Table 1.

[4] = read-out: IC50 (nM) ± SEM eqBuChE
[5] = eqBuChE, mean ± SEM, three parallel tests

Structure (SMILES) | SR(%) cell survival rate, 20 μM [1] [%] | SR(%) cell survival rate, 50 μM [1] [%] | IC50 [2] [nM] | IC50 [3, 4] [nM] | IC50 [3, 5] [nM]
CCN(CC)Cc1ccccc1CNC(=O)c1cccc(NC(=O)c2ccccn2)c1 [Compound 7, N-(3-((2-((diethylamino)methyl)benzyl)carbamoyl)phenyl)-pyridineamide] | 92.36 | 75.46 | 0.78 ± 0.63 | 0.34 ± 0.02 | –
CCN(CC)Cc1ccccc1CNC(=O)c1cccc(NC(=O)c2cccc(OC)c2)c1 [Compound 27] | 91.23 | 83.60 | 12.8 ± 6.01 | 4.91 ± 1.35 | –
CCN(CC)Cc1ccccc1CNC(=O)c1cccc(NC(=O)c2ccc(C(C)=O)cc2)c1 [Compound 30] | 91.86 | 72.56 | 24 ± 1.52 | – | 6.63 ± 0.66
CCN(CC)Cc1ccccc1CNC(=O)c1cccc(NC(=O)c2ncc[nH]2)c1 [Compound 9, N-(3-((2-((diethylamino)methyl)benzyl)carbamoyl)phenyl)-imidazole-2-carboxamide] | 80.36 | 70.74 | 1.91 ± 0.24 | 0.52 ± 0.1 | –
CCN(CC)Cc1ccccc1CNC(=O)c1cccc(NC(=O)c2ccc(I)cc2)c1 [Compound 21, 3-(4-iodobenzamido)-N-(2-((diethylamino)methyl)benzyl)benzamide] | 94.40 | 89.63 | 3.33 ± 1.62 | 1.59 ± 0.26 | –
CCN(CC)Cc1ccccc1CNC(=O)c1cccc(NC(=O)c2ccc([N+](=O)[O-])cc2)c1 [Compound 32] | 97.42 | 84.65 | 30.9 ± 3.26 | 22.6 ± 0.98 | –
CCN(CC)Cc1ccccc1CNC(=O)c1cccc(NC(=O)c2ccc(Cl)cc2)c1 [Compound 19, 3-(4-chlorobenzamido)-N-(2-((diethylamino)methyl)benzyl)benzamide] | 90.43 | 79.24 | 0.83 ± 0.39 | 0.34 ± 0.21 | –
CCN(CC)Cc1ccccc1CNC(=O)c1cccc(NC(=O)c2ccc(N)cc2)c1 [Compound 33] | 90.21 | 74.62 | 7.99 ± 2.53 | 1.56 ± 0.67 | –
CCN(CC)Cc1ccccc1CNC(=O)c1cccc(NC(=O)c2ccc(F)cc2)c1 [Compound 15, N-(2-((diethylamino)methyl)benzyl)-3-(4-fluorobenzamido)benzamide] | 93.57 | 84.35 | 1.44 ± 1.66 | – | 0.15 ± 0.06
CCN(CC)Cc1ccccc1CNC(=O)c1cccc(NC(=O)c2ccc(OC)cc2)c1 [Compound 26] | 97.20 | 82.25 | 1.04 ± 0.52 | – | 0.55 ± 0.09
CCN(CC)Cc1ccccc1CNC(=O)c1cccc(NC(=O)c2ccc(Br)cc2)c1 [Compound 20, 3-(4-bromobenzamido)-N-(2-((diethylamino)methyl)benzyl)benzamide] | 94.00 | 85.21 | 1.91 ± 0.59 | 0.98 ± 0.62 | –
CCN(CC)Cc1ccccc1CNC(=O)c1cccc(NC(=O)c2ccc(C)cc2)c1 [Compound 22, N-(2-((diethylamino)methyl)benzyl)-3-(4-methylbenzamido)benzamide] | 93.35 | 89.42 | 1.54 ± 0.56 | 0.98 ± 0.21 | –
CCN(CC)Cc1ccccc1CNC(=O)c1cccc(NC(=O)c2ccccc2F)c1 [Compound 18, N-(3-((2-((diethylamino)methyl)benzyl)carbamoyl)phenyl)-2-fluorobenzamide] | 80.26 | 73.56 | 17.4 ± 1.98 | 3.5 ± 1.1 | –
CN(C)Cc1ccccc1CNC(=O)c1cccc(NC(=O)c2cccs2)c1 [Compound 34, N-(3-((2-((dimethylamino)methyl)benzyl)carbamoyl)phenyl)thiophene-2-carboxamide] | 96.10 | 94.5 | 0.75 ± 0.27 | – | 0.29 ± 0.05
CCN(CC)Cc1ccccc1CNC(=O)c1cccc(NC(=O)c2ccc(F)c(F)c2)c1 [Compound 16] | 95.72 | 89.53 | 0.57 ± 0.1 | 0.3 ± 0.07 | –
CCN(CC)Cc1ccccc1CNC(=O)c1cccc(NC(=O)c2ccco2)c1 [Compound 6, N-(3-((2-((diethylamino)methyl)benzyl)carbamoyl)phenyl)furan-2-carboxamide] | 95.37 | 81.46 | 0.63 ± 0.13 | – | 0.79 ± 0.09
